{
  "source": "patent US4416884A",
  "about": "“Piperazinylbenzoheterocyclic compounds” (Otsuka Pharmaceutical Co., Ltd., priority 1978, dated 1983)",
  "key": {"[1]": {"experiment": "inactivation ratio by human serum protein", "settings": "3.1 mcg/ml, 37° C.", "experimental": "A 1/15 mol/l phosphate buffer was added to powder of Moni-Trol 1 (dehydrated preparation of human serum, a product of Midori Juji Co., Ltd.) to prepare a composition having the same serum protein concentration as natural human serum and this preparation was labeled \"100% human serum\", an aliquot of the \"100% human serum\" preparation was mixed with the same volume of the above buffer to prepare \"50% human serum\" and another aliquot was mixed with 4 times as much as its volume of the buffer to prepare \"20% human serum\"."}, "[2]": {"system": "Test Organism 27 (Streptococcus pneumoniae Type III)", "experiment": "influence of the addition of horse serum on the MIC", "type": "cell-based"}, "[3]": {"system": "Test Organism 1 (Escherichia Coli NIHJ)", "experiment": "influence of the addition of horse serum on the MIC", "type": "cell-based"}, "[4]": {"system": "Serattia marcescens IFO 12648", "experiment": "antimicrobial activity, serial dilution method on agar plate", "type": "cell-based", "method_in_brief": "(§1)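 MIC (mcg/ml) determined by agar plate serial dilution on Heart Infusion agar. Inocula prepared at 1×10^8 cells/ml (O.D. 660 mμ 0.07–0.16) and at 1×10^6 cells/ml by dilution.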"}, "[5]": {"system": "Klebsiella pneumoniae ST-101", "experiment": "antimicrobial activity, serial dilution method on agar plate", "type": "cell-based", "method_in_brief": "as §1"}, "[6]": {"system": "Streptococcus pyogenes IID S-23", "experiment": "antimicrobial activity, serial dilution method on agar plate", "type": "cell-based", "method_in_brief": "as §1"}, "[7]": {"system": "Enterobacter aerogenes IFO 12979", "experiment": "antimicrobial activity, serial dilution method on agar plate", "type": "cell-based", "settings": "Klebsiella aerogenes", "method_in_brief": "as §1"}, "[8]": {"system": "Streptococcus pyogenes IID Cook", "experiment": "antimicrobial activity, serial dilution method on agar plate", "type": "cell-based", "method_in_brief": "as §1"}, "[9]": {"system": "Staphylococcus aureus FDA 209 P", "experiment": "antimicrobial activity, serial dilution method on agar plate", "type": "cell-based", "method_in_brief": "as §1"}, "Proteus rettgeri NIH 96": {"system": "Proteus rettgeri NIH 96", "experiment": "antimicrobial activity, serial dilution method on agar plate", "type": "cell-based", "settings": "Providencia rettgeri", "method_in_brief": "as §1"}, "Shigella Sonnei EW 33": {"system": "Shigella Sonnei EW 33", "experiment": "antimicrobial activity, serial dilution method on agar plate", "type": "cell-based", "settings": "read-out: Minimum Inhibitory Concentration", "method_in_brief": "as §1"}, "[10]": {"system": "Proteus vulgaris IID OX-19", "experiment": "antimicrobial activity, serial dilution method on agar plate", "type": "cell-based", "settings": "read-out: Minimum Inhibitory Concentration", "method_in_brief": "as §1"}, "[11]": {"system": "Streptococcus pneumoniae Type III", "experiment": "antimicrobial activity, serial dilution method on agar plate", "type": "cell-based", "method_in_brief": "as §1"}, "[12]": {"system": "Pseudomonas aeruginosa NCTC 10490", "experiment": "antimicrobial activity, serial dilution method on agar plate", "type": "cell-based", "method_in_brief": "as §1"}, "[13]": {"system": "Streptococcus pneumoniae Type I", "experiment": "antimicrobial activity, serial dilution method on agar plate", "type": "cell-based", "method_in_brief": "as §1"}, "[14]": {"system": "Streptococcus pneumoniae Type II", "experiment": "antimicrobial activity, serial dilution method on agar plate", "type": "cell-based", "method_in_brief": "as §1"}, "[15]": {"system": "Pseudomonas aeruginosa ATCC 10145", "experiment": "antimicrobial activity, serial dilution method on agar plate", "type": "cell-based", "method_in_brief": "as §1"}, "[16]": {"system": "Pseudomonas aeruginosa E-2", "experiment": "antimicrobial activity, serial dilution method on agar plate", "type": "cell-based", "method_in_brief": "as §1"}, "[17]": {"system": "Bacillus subtilis PCI 219", "experiment": "antimicrobial activity, serial dilution method on agar plate", "type": "cell-based", "method_in_brief": "as §1"}, "Klebsiella pneumoniae": {"system": "Klebsiella pneumoniae", "experiment": "antimicrobial activity, serial dilution method on agar plate", "type": "cell-based", "method_in_brief": "as §1"}, "[18]": {"system": "Proteus morganii IID Kono", "experiment": "antimicrobial activity, serial dilution method on agar plate", "type": "cell-based", "settings": "Morganella morganii", "method_in_brief": "as §1"}, "[19]": {"settings": "read-out: Minimum Inhibitory Concentration, horse serum 0%, inoculum 10^6"}, "[20]": {"settings": "read-out: Minimum Inhibitory Concentration, horse serum 0%, inoculum 10^8"}, "[21]": {"settings": "read-out: Minimum Inhibitory Concentration, horse serum 10%, inoculum 10^6"}, "[22]": {"settings": "read-out: Minimum Inhibitory Concentration, horse serum 10%, inoculum 10^8"}, "[23]": {"settings": "read-out: Minimum Inhibitory Concentration, horse serum 20%, inoculum 10^6"}, "[24]": {"settings": "read-out: Minimum Inhibitory Concentration, horse serum 20%, inoculum 10^8"}, "[25]": {"settings": "read-out: Minimum Inhibitory Concentration, horse serum 40%, inoculum 10^6"}, "[26]": {"settings": "read-out: Minimum Inhibitory Concentration, horse serum 40%, inoculum 10^8"}, "[27]": {"settings": "read-out: Minimum Inhibitory Concentration, inoculum 1 × 10^6 cells/ml"}, "[28]": {"settings": "read-out: Minimum Inhibitory Concentration, inoculum 1 × 10^8 cells/ml"}},
  "note": "Where two headings read alike, the source gives them in different places.",
  "data": [
    {"smiles": "CC1CCc2c(N3CCNCC3)ccc3c(=O)c(C(=O)O)cn1c23", "note": "(stereo not shown) [A]", "values": [
      {"measurement": "fraction unbound at 2 h", "setting": "[1]; 10% human serum", "value": 0.918},
      {"measurement": "fraction unbound at 2 h", "setting": "[1]; 20% human serum", "value": 1},
      {"measurement": "fraction unbound at 2 h", "setting": "[1]; 100% human serum", "value": 1},
      {"measurement": "MIC", "setting": "[2]; [19]", "value": 6.3, "unit": "µg/mL"},
      {"measurement": "MIC", "setting": "[2]; [20]", "value": 12.5, "unit": "µg/mL"},
      {"measurement": "MIC", "setting": "[2]; [21]", "value": 6.3, "unit": "µg/mL"},
      {"measurement": "MIC", "setting": "[2]; [22]", "value": 6.3, "unit": "µg/mL"},
      {"measurement": "MIC", "setting": "[2]; [23]", "value": 6.3, "unit": "µg/mL"},
      {"measurement": "MIC", "setting": "[2]; [24]", "value": 6.3, "unit": "µg/mL"},
      {"measurement": "MIC", "setting": "[2]; [25]", "value": 3.1, "unit": "µg/mL"},
      {"measurement": "MIC", "setting": "[2]; [26]", "value": 6.3, "unit": "µg/mL"},
      {"measurement": "MIC", "setting": "[3]; [19]", "value": 6.3, "unit": "µg/mL"},
      {"measurement": "MIC", "setting": "[3]; [20]", "value": 6.3, "unit": "µg/mL"},
      {"measurement": "MIC", "setting": "[3]; [21]", "value": 3.1, "unit": "µg/mL"},
      {"measurement": "MIC", "setting": "[3]; [22]", "value": 6.3, "unit": "µg/mL"},
      {"measurement": "MIC", "setting": "[3]; [23]", "value": 3.1, "unit": "µg/mL"},
      {"measurement": "MIC", "setting": "[3]; [24]", "value": 3.1, "unit": "µg/mL"},
      {"measurement": "MIC", "setting": "[3]; [25]", "value": 3.1, "unit": "µg/mL"},
      {"measurement": "MIC", "setting": "[3]; [26]", "value": 3.1, "unit": "µg/mL"},
      {"measurement": "MIC", "setting": "[4]; [27]", "value": 1.6, "unit": "µg/mL"},
      {"measurement": "MIC", "setting": "[4]; [28]", "value": 3.1, "unit": "µg/mL"},
      {"measurement": "MIC", "setting": "[5]; ST101, read-out: Minimum Inhibitory Concentration, inoculum 1 × 10^6 cells/ml", "value": 0.2, "unit": "µg/mL"},
      {"measurement": "MIC", "setting": "[5]; ST101, read-out: Minimum Inhibitory Concentration, inoculum 1 × 10^8 cells/ml", "value": 0.4, "unit": "µg/mL"},
      {"measurement": "MIC", "setting": "[6]; IIDS23, read-out: Minimum Inhibitory Concentration, inoculum 1 × 10^6 cells/ml", "value": 12.5, "unit": "µg/mL"},
      {"measurement": "MIC", "setting": "[6]; IIDS23, read-out: Minimum Inhibitory Concentration, inoculum 1 × 10^8 cells/ml", "value": 25, "unit": "µg/mL"},
      {"measurement": "MIC", "setting": "[7]; IFO12979, read-out: Minimum Inhibitory Concentration, inoculum 1 × 10^6 cells/ml", "value": 0.8, "unit": "µg/mL"},
      {"measurement": "MIC", "setting": "[7]; IFO12979, read-out: Minimum Inhibitory Concentration, inoculum 1 × 10^8 cells/ml", "value": 0.8, "unit": "µg/mL"},
      {"measurement": "MIC", "setting": "[8]; [27]", "value": 12.5, "unit": "µg/mL"},
      {"measurement": "MIC", "setting": "[8]; [28]", "value": 25, "unit": "µg/mL"},
      {"measurement": "MIC", "setting": "[9]; FDA209, read-out: Minimum Inhibitory Concentration, inoculum 1 × 10^6 cells/ml", "value": 3.1, "unit": "µg/mL"},
      {"measurement": "MIC", "setting": "[9]; FDA209, read-out: Minimum Inhibitory Concentration, inoculum 1 × 10^8 cells/ml", "value": 6.3, "unit": "µg/mL"},
      {"measurement": "MIC", "setting": "Proteus rettgeri NIH 96; NIH96, read-out: Minimum Inhibitory Concentration, inoculum 1 × 10^6 cells/ml", "value": 0.4, "unit": "µg/mL"},
      {"measurement": "MIC", "setting": "Proteus rettgeri NIH 96; NIH96, read-out: Minimum Inhibitory Concentration, inoculum 1 × 10^8 cells/ml", "value": 0.4, "unit": "µg/mL"},
      {"measurement": "MIC", "setting": "Shigella Sonnei EW 33; inoculum 1 × 10^6 cells/ml", "value": 0.4, "unit": "µg/mL"},
      {"measurement": "MIC", "setting": "Shigella Sonnei EW 33; inoculum 1 × 10^8 cells/ml", "value": 0.8, "unit": "µg/mL"},
      {"measurement": "MIC", "setting": "[10]; IIDOX19, inoculum 1 × 10^6 cells/ml", "value": 0.8, "unit": "µg/mL"},
      {"measurement": "MIC", "setting": "[10]; IIDOX19, inoculum 1 × 10^8 cells/ml", "value": 1.6, "unit": "µg/mL"},
      {"measurement": "MIC", "setting": "[11]; [27]", "value": 12.5, "unit": "µg/mL"},
      {"measurement": "MIC", "setting": "[11]; [28]", "value": 25, "unit": "µg/mL"},
      {"measurement": "MIC", "setting": "[12]; NCTC10490, read-out: Minimum Inhibitory Concentration, inoculum 1 × 10^6 cells/ml", "value": 3.1, "unit": "µg/mL"},
      {"measurement": "MIC", "setting": "[12]; NCTC10490, read-out: Minimum Inhibitory Concentration, inoculum 1 × 10^8 cells/ml", "value": 6.3, "unit": "µg/mL"},
      {"measurement": "MIC", "setting": "[13]; [27]", "value": 3.1, "unit": "µg/mL"},
      {"measurement": "MIC", "setting": "[13]; [28]", "value": 12.5, "unit": "µg/mL"},
      {"measurement": "MIC", "setting": "[14]; [27]", "value": 6.3, "unit": "µg/mL"},
      {"measurement": "MIC", "setting": "[14]; [28]", "value": 25, "unit": "µg/mL"},
      {"measurement": "MIC", "setting": "[15]; ATCC10145, read-out: Minimum Inhibitory Concentration, inoculum 1 × 10^6 cells/ml", "value": 6.3, "unit": "µg/mL"},
      {"measurement": "MIC", "setting": "[15]; ATCC10145, read-out: Minimum Inhibitory Concentration, inoculum 1 × 10^8 cells/ml", "value": 6.3, "unit": "µg/mL"},
      {"measurement": "MIC", "setting": "[16]; E2, read-out: Minimum Inhibitory Concentration, inoculum 1 × 10^6 cells/ml", "value": 6.3, "unit": "µg/mL"},
      {"measurement": "MIC", "setting": "[16]; E2, read-out: Minimum Inhibitory Concentration, inoculum 1 × 10^8 cells/ml", "value": 12.5, "unit": "µg/mL"},
      {"measurement": "MIC", "setting": "[17]; PCI219, read-out: Minimum Inhibitory Concentration, inoculum 1 × 10^6 cells/ml", "value": 0.8, "unit": "µg/mL"},
      {"measurement": "MIC", "setting": "[17]; PCI219, read-out: Minimum Inhibitory Concentration, inoculum 1 × 10^8 cells/ml", "value": 0.8, "unit": "µg/mL"},
      {"measurement": "MIC", "setting": "Klebsiella pneumoniae; [27]", "value": 1.6, "unit": "µg/mL"},
      {"measurement": "MIC", "setting": "Klebsiella pneumoniae; [28]", "value": 1.6, "unit": "µg/mL"},
      {"measurement": "MIC", "setting": "[18]; [27]", "value": 3.1, "unit": "µg/mL"},
      {"measurement": "MIC", "setting": "[18]; [28]", "value": 6.3, "unit": "µg/mL"}
    ]}
  ]
}
